Reference: patent US8758767B2, “Antigens targeted by prevalent pathogennic T cells in type 1 diabetes and uses thereof” (Albert Einstein College of Medicine of Yeshiva University, priority 2003, dated 2014)

What was measured:
[1] = target: IGRP206-214/H-2K^d on antigen-presenting cells (mouse) (UniProt P01902); experiment: cell-based or functional assay
8.3 CTL = experiment: Epitope reconstitution 51Cr-release cytotoxicity assay, peptide-pulsed RMA-S/K^d target cells; type: cell-based, mouse; settings: peptide-pulsed RMA-S/K^d targets
Experimental: 8.3 CTL were generated by culturing splenocytes from 8.3-NOD mice with mitomycin C-treated NOD splenocytes pulsed with NRP-A7 peptide as described (DiLorenzo et al, 2002). CTL were used in 16 h ^51Cr-release cytotoxicity assays to test for recognition of peptide-pulsed RMA-S/K^d target cells (provided by M. Bevan, University of Washington, Seattle, Wash., USA) at an effector to target ratio of 40:1 as described (DiLorenzo et al., 2002). Synthetic peptides were used at concentrations as indicated in the figures, and 7×10^8, 6×10^8, and 2×10^9 NIT-1-cell-equivalents of peptide were used for assays of first-, second-, and third-dimension HPLC fractions, respectively.

8.3-CD8+ T-cells = experiment: Proliferation and cytokine secretion of naive splenic 8.3-CD8+ T-cells with peptide-pulsed NOD splenocytes; type: cell-based, mouse; settings: for agonistic activity on 8.3-CD8+ T-cells: FIG. 5, peptide 0.01-1 μM
Experimental: Naïve or NRP-A7-differentiated (see below) splenic CD8+ T-cells from 8.3-NOD mice (2×10^4/well) were incubated, in duplicate, with peptide-pulsed (0.01, 0.1 and 1 μM), γ-irradiated (3,000 rad) NOD splenocytes (10^5/well) for 3 days at 37° C. in 5% CO2. Cultures were pulsed with 1 μCi of (^3H)-thymidine during the last 18 hours of culture and harvested.
(§1) Naïve splenic CD8+ T-cells from 8.3-NOD mice (2×10^4/well) were incubated with peptide-pulsed (0.001, 0.01, 0.1, 1 and/or 10 μM) γ-irradiated NOD splenocytes (10^5/well) in 96-well plates for 48 hours at 37° C. Short-term islet-derived T-cell lines from peptide-treated or unmanipulated NOD mice (adjusted at 2×10^4 CD8+ T-cells/well) were tested the same way, but using 10 μM of peptide. The supernatants (100 μl/well) were assayed in duplicate for IL-2, IL-4, and/or IFN-γ content by ELISA using commercially available kits (Genzyme Diagnostics, Cambridge, Mass.).

female NOD mice = experiment: Repeated peptide treatment of female NOD mice, diabetes development and islet-associated CD8+ T-cells; type: in vivo, mouse; settings: for avidity of NRP-V7 tetramer binding by islet-associated CD8+ cells of treated mice: NRP-I4 100 μg/injection, NRP-A7 50 μg/injection, vs TUM-treated mice; for protection from diabetes by chronic treatment (discussion summary): intermediate doses NRP-A7, high doses NRP-I4, low or high doses NRP-V7, high doses IGRP206-214; for absolute number of NRP-V7-reactive T-cells in the islets: NRP-A7 50 μg/injection vs. TUM-treated mice; for T-cell responses against IGRP epitopes of islet-derived CD8+ T-cells of treated mice: for IGRP206-214 treatment: other IGRP epitopes
Experimental: Cohorts of 3-to-4 week-old female NOD mice were injected with 1-100 μg of peptide in PBS intraperitoneally. This was repeated every 2 weeks until the 7-8th week, and every 3 weeks thereafter. Mice were monitored for development of hyperglycemia until at least the 28th week of age. The 8.3-CD8+ T-cell tolerogenic activity of APLs was determined by treating 8-15 wk-old 8.3-NOD mice with one i.p. injection of 100 μg of peptide. […] Mice were sacrificed a week after treatment, and their spleens analyzed for presence of 8.3-CD8+ T-cells by flow cytometry.
We next investigated whether the anti-diabetogenic activity of the above APLs was a function of “avidity”, as defined not only by the affinity of individual peptide/MHC complexes for specific TCRs, but also by the absolute number of peptide/MHC complexes that are available for recognition (i.e. dose of peptide). This was done by treating cohorts of female NOD mice with repeated injections of TUM (negative control), NRP-I4, NRP-A7 and NRP-V7 (in PBS) over a wide dose range, and by following the mice for development of diabetes (FIG. 7A, top). Starting at 3-4 weeks of age, mice received one injection of peptide i.p. every 2 (first three doses) or 3 weeks after initiation of treatment. Mice were sacrificed at diabetes onset or at the end of the follow-up period (28-32 weeks), to investigate the effects of treatment on the size and tetramer-binding avidity of the islet-associated IGRP206-214-reactive CD8+ T-cell subpopulation (FIG. 7A, bottom).

AI15.F5 TCR = experiment: TCR transfectant peptide recognition, IL-2 release (58 α−β− cells, RMA-S/K^d presenters); type: cell-based, mouse; settings: FIG. 2
Source text: (§2) T cell receptors from the previously isolated NOD-derived β cell-autoreactive class I MHC-restricted T cell clones AI4, AI12.B1.1, AI12.B1.2, AI12.B1.3, AI15.A10, AI15.F5 (DiLorenzo et al., 1998), and 8.3 (Verdaguer et al., 1997) were expressed in the TCR^− T cell hybridoma 58α^−β^− (engineered to express the TCR ζ chain and CD8αβ and provided by H.-C. Chang, Dana Farber, Boston, Mass., USA) as described (Serreze et al., 2001). TCR expression was verified by flow cytometric analysis of growing clones using an antibody to CD3ε (145-2C11). RMA-S/K^d cells incubated overnight at 28° C. were used to present exogenously added synthetic peptides at concentrations as indicated in the figures. Peptide recognition by the TCR transfectants was measured by IL-2 production as previously described (Serreze et al., 2001).

AI12.B1.3 TCR = experiment: as above; type: cell-based, mouse; settings: FIG. 2
Source text: as §2

NOD female mice = experiment: Protection of NOD mice from type 1 diabetes (Example 2); type: in vivo, mouse; settings: for mice that developed diabetes: 100 micrograms peptide intraperitoneally from 3.5 weeks of age, read at ~25 weeks-old
Experimental: Ten NOD female mice were treated with 100 micrograms of IGRP206-214 peptide (in phosphate-buffered saline) intraperitoneally, starting at 3.5 weeks of age. Forty mice were used as controls. Each control mouse was treated with the TUM peptide ([…] NO:15). The mice received one injection of peptide every two weeks for the first three injections, and then one injection every three weeks thereafter. At 25 weeks-old, two (20%) of the IGRP206-214 mice developed diabetes, vs. 26 control mice ( 65%). […] There were no significant differences in interferon-γ production vs. cells stimulated with the negative control peptide TUM. In one of these two mice, the islets contained T-cells that responded to two IGRP peptides other than IGRP206-214.

H-2K^d = target: T1, H-2K^d (Mus musculus, UniProt P01902); experiment: H-2K^d stabilization assay on RMA-S/K^d cells (Example 1); type: binding; settings: FIG. 3, mean fluorescence intensity of H-2K^d
T1 construct: expressed in transfected cells; host or cells: RMA-S/K^d cells
T1 sequence (P01902 22-368): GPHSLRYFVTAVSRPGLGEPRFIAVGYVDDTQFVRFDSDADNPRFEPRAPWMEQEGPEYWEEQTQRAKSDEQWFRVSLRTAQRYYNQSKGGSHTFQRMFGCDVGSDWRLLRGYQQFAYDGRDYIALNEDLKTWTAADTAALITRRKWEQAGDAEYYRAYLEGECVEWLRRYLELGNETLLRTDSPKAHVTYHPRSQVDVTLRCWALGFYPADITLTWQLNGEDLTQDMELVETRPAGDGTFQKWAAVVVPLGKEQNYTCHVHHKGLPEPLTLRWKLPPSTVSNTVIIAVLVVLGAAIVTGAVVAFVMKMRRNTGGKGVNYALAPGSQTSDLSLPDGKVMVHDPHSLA
T1 sequence (P01887 21-119 partner): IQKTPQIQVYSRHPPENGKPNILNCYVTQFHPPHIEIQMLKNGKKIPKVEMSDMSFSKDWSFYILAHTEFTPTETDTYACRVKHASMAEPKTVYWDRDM
Experimental: RMA-S/K^d cells, cultured overnight at 28° C., were pulsed with peptides in complete DMEM for 1 h at 28° C., incubated at 37° C. for 3 h, washed, stained with anti-H-2K^d monoclonal antibody SF1-1.1, counter-stained with FITC-conjugated polyclonal goat anti-mouse antibody, and analyzed by flow cytometry. Data were calculated by subtracting mean fluorescence intensity of H-2K^d on non-peptide-pulsed cells from that on peptide-pulsed cells.

[2] = tested on: CD8+ cells derived from pancreatic islets of wild-type NOD mice; experiment: Tetramer staining and avidity of NOD islet-derived CD8+ T-cells (Example 3); type: cell-based, mouse; settings: FIG. 9B, at least some animals
Experimental: Tetramers were prepared and used as described in (Amrani et al., 2000). Hand-picked pancreatic islets from individual mice were cultured in complete media supplemented with 0.5 U/ml of Takeda rhIL-2 for 7-9 days. T-cells (10^6 per 20 μl) were then stained for 45 minutes on ice in 20 μl of wash media (0.2% sodium bicarbonate, 0.1% sodium azide and 2% FBS in RPMI-1640) containing anti-CD8-FITC (clone YTS169.4; 0.5 μg) and tetramer (85.5 nM). After washing, the cells were resuspended in wash media and analyzed with a flow cytometer (Becton Dickinson). For the analysis of tetramer staining at equilibrium, T-cells were stained for 2 hours at room temperature with 20 μl of wash media (0.2% sodium bicarbonate, 0.1% sodium azide and 2% FBS in RPMI-1640) containing anti-CD8α-FITC (clone YTS169.4; 0.5 μg) and different concentrations of tetramers (8.55, 17.1, 42.75 and 85.5 nM). After washing, cells were resuspended in 100 μl of wash media, fixed in 0.4% paraformaldehide and analyzed with a flow cytometer. The apparent Kd values were determined by plotting the negative reciprocal of the slope of the line fit to Scatchard plots of fluorescence units (median of CD8+ population tetramer staining)/nM versus fluorescence units.

[3] = tested on: CD8+ cells propagated from islets of NOD mice; experiment: IFN-γ secretion by islet-derived CD8+ T-cells in response to IGRP peptides; type: cell-based, mouse; settings: peptide 10 μM, pre-diabetic or acutely diabetic NOD mice
Source text: Islet-derived CD8+ T-cells from peptide-treated or unmanipulated NOD mice were generated by culturing pancreatic islets in complete media (CM: RPMI 1640 media containing 10% fetal bovine serum), containing 0.5 U/ml Takeda rhIL-2 (10-50 islets/well in 24-well plates). The in vivo-activated, IL-2R+ lymphocytes migrating from islets into the culture media were used in functional assays within 6-9 days of islet isolation (Amrani et al., 2000; Anderson et al., 1999).
as §1

[4] = IFN-γ secretion, Table II, FIG. 10A

## 8.3 T cell receptor (TCR)
[1]
  half-maximal activity, 51Cr-release assay with 8.3 CTL on peptide-pulsed RMA-S/K^d cells: 50 µM

## KYCLITIFL [G6Pase, reference compound]
8.3 CTL
  recognition by 8.3 CTL: not recognized by 8.3 CTL

## KYNIANWFL [NRP-I4]
8.3-CD8+ T-cells; FIG. 5
  triggering IFN-γ secretion by naive 8.3-CD8+ T-cells: quite efficient
8.3-CD8+ T-cells
  agonistic activity on 8.3-CD8+ T-cells: partial agonist
8.3-CD8+ T-cells; FIG. 5, proliferation, IL-2
  inducing other responses of naive 8.3-CD8+ T-cells: significantly less efficient than NRP-A7
Female NOD mice; 100 μg/injection
  anti-diabetogenic activity: highly anti-diabetogenic
Female NOD mice; <20 μg/injection
  anti-diabetogenic activity: not protective at all
Female NOD mice
  avidity of NRP-V7 tetramer binding by islet-associated CD8+ cells of treated mice: significantly lower avidity
  protection from diabetes by chronic treatment (discussion summary): near complete protection from diabetes

## KYNKANAFL [NRP-A7]
8.3-CD8+ T-cells
  agonistic activity on 8.3-CD8+ T-cells: agonist
Female NOD mice; 50 μg/injection
  anti-diabetogenic activity: protected mice from diabetes
Female NOD mice; 100 μg/injection
  anti-diabetogenic activity: ineffective
  percentages and absolute numbers of NRP-V7-reactive CD8+ cells in the islets: significantly reduced numbers
Female NOD mice
  absolute number of NRP-V7-reactive T-cells in the islets: 0.6×10^5±0.3
  avidity of NRP-V7 tetramer binding by islet-associated CD8+ cells of treated mice: accumulation of low avidity IGRP206-214-reactive CD8+ T-cells within islets
  protection from diabetes by chronic treatment (discussion summary): near complete protection from diabetes
AI15.F5 TCR
  recognition by AI15.F5 (IL-2 release): did not recognize
AI12.B1.3 TCR
  recognition by AI12.B1.3 (IL-2 release): recognized

## KYQAVTTTL [TUM, reference compound]
NOD female mice
  mice that developed diabetes: ~65%
Female NOD mice; [4]
  T-cell responses against IGRP epitopes of islet-derived CD8+ T-cells of treated mice: did not significantly increase
Female NOD mice
  absolute number of NRP-V7-reactive T-cells in the islets: 1×10^5±0.3

## LYLVCGERG [INS B15-23]
H-2K^d
  binding to H-2K^d: barely detectable even at the highest peptide concentration tested

## LYLVCGERI [INS-I9]
H-2K^d
  binding to H-2K^d: improved binding to H-2K^d

## SFCKSASIP [peptide 72, text numbering of the IGRP library]
[2]
  presence of peptide-reactive CD8+ T-cells in islets by tetramers: confirmed the presence
[3]
  mice with islet CD8+ T-cells responding to the peptide (IFN-γ secretion): a significant number of mice also mounted responses

## TYYGFLNFM [peptide 39, text numbering of the IGRP library]
[2]
  presence of peptide-reactive CD8+ T-cells in islets by tetramers: confirmed the presence
[3]
  mice with islet CD8+ T-cells responding to the peptide (IFN-γ secretion): a significant number of mice also mounted responses

## VYLKTNVFL [IGRP206-214]
8.3 CTL
  recognition by 8.3 CTL: is the natural β cell peptide recognized by 8.3
NOD female mice
  mice that developed diabetes: 20%
NOD female mice; NRP-V7/K^d tetramer staining
  IGRP206-214-reactive T-cells in islets of treated mice that developed diabetes: did not have IGRP206-214-reactive T-cells in islets
H-2K^d
  binding to H-2K^d: good MEC binding
[3]
  mice with islet CD8+ T-cells responding to the peptide (IFN-γ secretion): most mice
Female NOD mice; 75-100 μg/injection
  age at onset of diabetes: delayed
  incidence of diabetes: did not significantly reduce
Female NOD mice; 75-100 μg/injection, flow cytometry and functional assays
  intra-islet IGRP206-214-reactive CD8+ T-cell subpopulation: near complete deletion
Female NOD mice; [4]
  anti-IGRP206-214 response of islet-derived CD8+ T-cells of treated mice: reduced both the frequency and magnitude
  T-cell responses against IGRP epitopes of islet-derived CD8+ T-cells of treated mice: increased the frequency and magnitude
Female NOD mice
  protection from diabetes by chronic treatment (discussion summary): only afforded marginal protection from disease
AI15.F5 TCR
  recognition by AI15.F5 (IL-2 release): responded
AI12.B1.3 TCR
  recognition by AI12.B1.3 (IL-2 release): recognized

## YLKTNVFLF [IGRP207-215]
8.3-CD8+ T-cells; data not shown
  cross-reactivity with IGRP206-214, ability to elicit 8.3-CD8+ T-cell responses: cross-reactive with IGRP206-214
[3]
  mice with islet CD8+ T-cells responding to the peptide (IFN-γ secretion): most mice
